Measurements published in ChEMBL document CHEMBL1201862, “PubChem BioAssay data set” (2004).
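Cells were grown in 96-well plates and exposed to each compound for 48 hours at five concentrations; endpoints were interpolated linearly between bracketing concentrations, or set to the highest concentration if not reached. GI50 is the concentration that inhibits growth by half.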 The source made the active and inactive calls. Rule as the data show it: active = GI50 up to about 1.1 µM and inactive = higher.

What was measured:
Test in all cases: NCI tumour cell line growth inhibition, 48 h
NCI/ADR-RES = tested on: NCI/ADR-RES
OVCAR-5 = tested on: OVCAR-5
LOX IMVI = tested on: LOX IMVI
OVCAR-8 = tested on: OVCAR-8
HT-29 = tested on: HT-29
A498 = tested on: A498
NCI-H226 = tested on: NCI-H226
SN12C = tested on: SN12C
PC-3 = tested on: PC-3
TK-10 = tested on: TK-10
SK-MEL-2 = tested on: SK-MEL-2
SF-295 = tested on: SF-295
HOP-62 = tested on: HOP-62
IGROV-1 = tested on: IGROV-1
CCRF-CEM = tested on: CCRF-CEM
SNB-19 = tested on: SNB-19
NCI-H23 = tested on: NCI-H23
Malme-3M = tested on: Malme-3M
HOP-92 = tested on: HOP-92

SMILES | GI50 (NCI/ADR-RES) | GI50 (OVCAR-5) | GI50 (LOX IMVI) | GI50 (OVCAR-8) | GI50 (HT-29) | GI50 (A498) | GI50 (NCI-H226) | GI50 (SN12C) | GI50 (PC-3) | GI50 (TK-10) | GI50 (SK-MEL-2) | GI50 (SF-295) | GI50 (HOP-62) | GI50 (IGROV-1) | GI50 (CCRF-CEM) | GI50 (SNB-19) | GI50 (NCI-H23) | GI50 (Malme-3M) | GI50 (HOP-92)
COC(=O)/C=C/CC(=O)NS(C)(=O)=O | > 10 µM (inactive) | > 10 µM (inactive) | > 10 µM (inactive) | > 10 µM (inactive) | > 10 µM (inactive) | > 10 µM (inactive) | > 10 µM (inactive) | > 10 µM (inactive) | > 10 µM (inactive) | > 10 µM (inactive) | > 10 µM (inactive) | > 10 µM (inactive) | > 10 µM (inactive) | > 10 µM (inactive) | > 10 µM (inactive) | > 10 µM (inactive) | > 10 µM (inactive) | > 10 µM (inactive) | 
O=C(NC1CCCCC1)c1nn[nH]c1Cl | > 100 µM (inactive) | > 100 µM (inactive) | > 100 µM (inactive) | > 100 µM (inactive) | > 100 µM (inactive) | > 100 µM (inactive) |  | > 100 µM (inactive) | > 100 µM (inactive) | > 100 µM (inactive) | > 100 µM (inactive) | > 100 µM (inactive) | > 100 µM (inactive) | > 100 µM (inactive) | > 100 µM (inactive) | > 100 µM (inactive) | > 100 µM (inactive) |  | > 100 µM (inactive)
CC1CCC2C(C)C(OC(=O)CCC(=O)O)OC3OC4(C)CCC1C32OO4 (stereo unspecified) | 4.62 µM (inactive) | 1.31 µM (inactive) | 1.06 µM (active) | 3.47 µM (inactive) | 3.52 µM (inactive) | 27.2 µM (inactive) |  | 18 µM (inactive) | 0.353 µM (active) | 2.99 µM (inactive) | 3.86 µM (inactive) | 15.8 µM (inactive) | 16.6 µM (inactive) | 10.4 µM (inactive) | 3.78 µM (inactive) | 37.6 µM (inactive) |  |  | 11.6 µM (inactive)
CC(C)=CCc1cc(C2COc3cc4c(c(O)c3C2=O)C=CC(C)(C)O4)c(O)cc1O (stereo unspecified) | 22.6 µM (inactive) | 15.6 µM (inactive) | 17.7 µM (inactive) | 21.5 µM (inactive) | 16.6 µM (inactive) | 16.5 µM (inactive) |  | 13.5 µM (inactive) | 12.4 µM (inactive) | 16.8 µM (inactive) | 17.7 µM (inactive) | 17.8 µM (inactive) | 17.8 µM (inactive) | 16.2 µM (inactive) | 7.53 µM (inactive) | 19.3 µM (inactive) | 15.6 µM (inactive) | 13.4 µM (inactive) | 16.7 µM (inactive)
Cc1c(O)c(C)c2c(C)cn(C(=O)C(C)(C)C)c2c1C | 34.1 µM (inactive) | 30.2 µM (inactive) | 35 µM (inactive) | 20.1 µM (inactive) | 17.3 µM (inactive) | 16.5 µM (inactive) | 12.1 µM (inactive) | 17.9 µM (inactive) | 21.2 µM (inactive) | 20.5 µM (inactive) | 28.2 µM (inactive) | 17.8 µM (inactive) | 17.5 µM (inactive) | 21.6 µM (inactive) | 19.8 µM (inactive) | 24.8 µM (inactive) | 15.5 µM (inactive) |  | 0.0206 µM (active)
CCOC(=O)C1C(c2ccc(OC)cc2)c2c(n[nH]c2O)CC1(O)OCC (stereo unspecified) | > 100 µM (inactive) | > 100 µM (inactive) | > 100 µM (inactive) | > 100 µM (inactive) | > 100 µM (inactive) | > 100 µM (inactive) |  | > 100 µM (inactive) | > 100 µM (inactive) | > 100 µM (inactive) | > 100 µM (inactive) | 44.8 µM (inactive) | > 100 µM (inactive) | > 100 µM (inactive) | > 100 µM (inactive) | > 100 µM (inactive) | > 100 µM (inactive) | > 100 µM (inactive) | > 100 µM (inactive)
Cc1ccc2c(c1)C(=S)N1CSCC1c1nncn1-2 (stereo unspecified) | > 100 µM (inactive) | > 100 µM (inactive) | > 100 µM (inactive) | > 100 µM (inactive) | > 100 µM (inactive) | > 100 µM (inactive) | > 100 µM (inactive) | > 100 µM (inactive) | > 100 µM (inactive) | > 100 µM (inactive) | > 100 µM (inactive) | > 100 µM (inactive) | > 100 µM (inactive) | > 100 µM (inactive) | > 100 µM (inactive) | > 100 µM (inactive) |  | > 100 µM (inactive) | 
CCCCc1c2c(nc3c1CCCC3O)CCCC2 (stereo unspecified) | > 100 µM (inactive) | > 100 µM (inactive) |  | > 100 µM (inactive) | 85.3 µM (inactive) | > 100 µM (inactive) | > 100 µM (inactive) | > 100 µM (inactive) | > 100 µM (inactive) | > 100 µM (inactive) | > 100 µM (inactive) | > 100 µM (inactive) | > 100 µM (inactive) | > 100 µM (inactive) | 72.6 µM (inactive) | > 100 µM (inactive) | > 100 µM (inactive) | > 100 µM (inactive) | 79.4 µM (inactive)
Cc1ccc(N2C(=O)C=C(C3=C(O)C(=O)N(c4ccc(C)cc4)C3=O)C2=O)cc1 | > 100 µM (inactive) | > 100 µM (inactive) | > 100 µM (inactive) | > 100 µM (inactive) | > 100 µM (inactive) | > 100 µM (inactive) | > 100 µM (inactive) | > 100 µM (inactive) | > 100 µM (inactive) | > 100 µM (inactive) |  | > 100 µM (inactive) | > 100 µM (inactive) | > 100 µM (inactive) | > 100 µM (inactive) | > 100 µM (inactive) | > 100 µM (inactive) | > 100 µM (inactive) | 46.5 µM (inactive)
C=CCNC1=C2C[C@@H](C)C[C@@H](OC)[C@H](OC(=O)CCN(C)C)[C@H](C)/C=C(\C)[C@@H](OC(N)=O)[C@H](OC)/C=C\C=C(/C)C(=O)NC(=CC1=O)C2=O | 8.51 µM (inactive) | 2.18 µM (inactive) | 0.0993 µM (active) | 0.324 µM (active) | < 0.01 µM (active) | 0.297 µM (active) |  | 0.0869 µM (active) | 0.0386 µM (active) | 0.0755 µM (active) | 0.059 µM (active) | 0.134 µM (active) | 0.044 µM (active) | 0.13 µM (active) | 3.09 µM (inactive) | 1.17 µM (inactive) | 0.0547 µM (active) | 0.0643 µM (active) | 8.41 µM (inactive)
CC(C)(C)c1cc2c(O)c(c1)Cc1cc(C(C)(C)C)cc(c1O)Cc1cc(C(C)(C)C)cc(c1O)Cc1cc(C(C)(C)C)cc(c1O)Cc1cc(C(C)(C)C)cc(c1O)Cc1cc(C(C)(C)C)cc(c1O)Cc1cc(C(C)(C)C)cc(c1O)Cc1cc(C(C)(C)C)cc(c1O)C2 | > 50 µM (inactive) | > 50 µM (inactive) |  | > 50 µM (inactive) | > 50 µM (inactive) | > 50 µM (inactive) | > 50 µM (inactive) | > 50 µM (inactive) | > 50 µM (inactive) | > 50 µM (inactive) | > 50 µM (inactive) | > 50 µM (inactive) | > 50 µM (inactive) | > 50 µM (inactive) | > 50 µM (inactive) | > 50 µM (inactive) | > 50 µM (inactive) | > 50 µM (inactive) | > 50 µM (inactive)
CC[C@@H]1CC[C@@H]2[C@H](CC[C@]3(C)[C@@H](OS(=O)(=O)c4ccc(C)cc4)CC[C@@H]23)[C@H]1COS(=O)(=O)c1ccc(C)cc1 | > 100 µM (inactive) |  | > 100 µM (inactive) | > 100 µM (inactive) | > 100 µM (inactive) | > 100 µM (inactive) | > 100 µM (inactive) | > 100 µM (inactive) | > 100 µM (inactive) | > 100 µM (inactive) |  | > 100 µM (inactive) |  | > 100 µM (inactive) | > 100 µM (inactive) | > 100 µM (inactive) |  | > 100 µM (inactive) | > 100 µM (inactive)
CN1CCN(CCCNN)CC1 | > 100 µM (inactive) | > 100 µM (inactive) | > 100 µM (inactive) | > 100 µM (inactive) | > 100 µM (inactive) | > 100 µM (inactive) | > 100 µM (inactive) | > 100 µM (inactive) | > 100 µM (inactive) | > 100 µM (inactive) | > 100 µM (inactive) | > 100 µM (inactive) | > 100 µM (inactive) | > 100 µM (inactive) |  | > 100 µM (inactive) | > 100 µM (inactive) |  | > 100 µM (inactive)
Cn1c(=O)cc(NNc2ccc(Br)cc2)[nH]c1=O | 31.1 µM (inactive) | 13.4 µM (inactive) | 2.11 µM (inactive) | 19.1 µM (inactive) | 3.53 µM (inactive) | 44.3 µM (inactive) | 18.2 µM (inactive) | 10.7 µM (inactive) | 10 µM (inactive) | 20.3 µM (inactive) |  | 13.4 µM (inactive) | 12.8 µM (inactive) | 11.1 µM (inactive) | 0.431 µM (active) | 13.6 µM (inactive) |  | 16.6 µM (inactive) | 13.9 µM (inactive)
Cc1ccc(CC2(C(=O)O)Cc3ccc(C)cc3C2)cc1 (stereo unspecified) | > 100 µM (inactive) | > 100 µM (inactive) | > 100 µM (inactive) | > 100 µM (inactive) | > 100 µM (inactive) | > 100 µM (inactive) | > 100 µM (inactive) | > 100 µM (inactive) | 51.5 µM (inactive) | > 100 µM (inactive) | > 100 µM (inactive) | 68.5 µM (inactive) | > 100 µM (inactive) | > 100 µM (inactive) | 49.2 µM (inactive) | > 100 µM (inactive) | 75.5 µM (inactive) | > 100 µM (inactive) | 
